In patent US20140309171A1, “MARKER FOR BLOOD COAGULATION” (Universite Catholique De Louvain, priority 2011, published 2014):
“Also recorded” adds a separate entry of the source.

Experiments:
Type in all cases: cell-based
[1] = system: VASP Thr 278 phosphorylation; assay: Western blot of VASP Thr278 phosphorylation in human platelets; details: 0.1 U/ml thrombin, pre-incubation with STO-609
Method: Washed human platelets (used in in vitro studies). Platelets were obtained from adult healthy volunteers in accordance with the Ethics Commission of our institution (Commission d'Ethique Biomédicale Hospitalo-Facultaire, Université catholique de Louvain). Whole blood was collected with butterfly needle 21G into Sodium Citrate 1:10 solution (S-monovette). Platelet-rich plasma (PRP) was obtained by 15 min centrifugation at 330 g. The platelets pellet was then washed in Tyrode modified buffer (135 mM NaCl, 12 mM NaHCO3, 1 mM Sodium Citrate, 2.9 mM KCl, 0.3 mM Na2HPO4, 1 mM MgCl2, 5 mM D-glucose, 10 mM Hepes, 0.35% bovine serum albumin (BSA), pH 7.4 at 37° C.) and resuspended to a density of 2.5 10^5 platelets/μl for the measurement of intracellular Ca^2+ or platelet aggregation. […]
Proteins were separated as described (Miranda et al. 2010. J Clin Invest 103(6): 879-887). […] Bound antibodies were detected by enhanced chemiluminescence (Thermofisher). […] Band intensities were quantified by scanning and processing image intensities with the program ImageJ (1.33 for Mac OS X). The quantification of immunoblots presented in results was obtained after normalization using the internal loading control.

[2] = system: activated conformation of αIIbβ3 on human platelets; assay: Flow cytometry, PAC-1 binding; details: 0.025 U/ml thrombin, 10 μM STO-609
Method: (§1) Flow cytometric analysis was performed on a FACScan (Becton Dickinson). Washed human platelets (2·10^5 platelets/μl) were pre-incubated with DMSO/STO-609 for 2 min and then treated with or without thrombin (0.025 U/ml) in the presence of excessive amounts of FITC-conjugated monoclonal antibody (anti-CD62P (BD Biosciences) or PAC-1 (BD Biosciences)) at room temperature. The samples were then fixed at 4° C. for 30 min with 2% paraformaldehyde. The levels of P-selectin expression and PAC1 binding were expressed as the percentages of cells positive for anti-CD62P and PAC-1, respectively. The negative cut-off for each antibody was set using resting platelets that gave less than 5% of cells positive for binding of anti-CD62P or PAC-1. In addition to aggregation measurements, we examined by flow cytometry STO-609 effects on PAC-1 binding, an antibody specific for the activated conformation of αIIbβ3. Platelets were activated by 0.025 U/ml thrombin in the absence or presence of 10 μM STO-609.

[3] = system: intracellular Ca2+ in human platelets; assay: Cytosolic Ca2+ measurement in fluo-3-loaded platelets; details: 10 μM STO-609, 0.1 U/ml thrombin, 1 mM extracellular Ca2+
Method: Platelets pelleted from the platelet-rich plasma were suspended in Ca^2+-free modified Tyrode's buffer and then incubated with 3 μM flou-3/acetoxymethyl ester (Santa Cruz Biotechnology) at 37° C. for 30 min. Probenecid 2.5 mM (Sigma-Aldrich) was added to the buffer throughout the experiments to prevent leakage of the dye. After 2 washings, fluo-3-loaded platelets were suspended in modified Tyrode's buffer at a concentration of 2 10^7 platelets/ml. They were then pre-incubated with 10 μM STO-609 in the presence of 1 mM extracellular Ca^2+ with stirring at 37° C. for 2 min before the addition of thrombin (0.1 U/ml). Fluorescence (excitation 505 nm, emission 530 nm) was measured with a spectrophotometer (AMINCO SPF500). Ca^2+ concentration as estimated as follows: Kd* (F−Fmin)/(Fmax−Fmin), where the Kd of Fluo-3 is ([…] at 37° C.). The minimal fluorescence (Fmin) is the fluorescence in the absence of Ca^2+ and Fmax is the fluorescence determined with ionomycin 1 μM.

[4] = system: Ser79 acetyl-CoA carboxylase (ACC) phosphorylation in human platelets; assay: Western blot of phosphorylated (Ser79) ACC in human platelets; details: 10 μM STO-609, 0.1 U/ml thrombin
[5] = system: washed human platelets; assay: Platelet aggregation, light transmission (Chrono-Log Aggregometer)
Method: Washed human platelets (used in in vitro studies). Platelets were obtained from adult healthy volunteers in accordance with the Ethics Commission of our institution (Commission d'Ethique Biomédicale Hospitalo-Facultaire, Université catholique de Louvain). Whole blood was collected with butterfly needle 21G into Sodium Citrate 1:10 solution (S-monovette). Platelet-rich plasma (PRP) was obtained by 15 min centrifugation at 330 g. The platelets pellet was then washed in Tyrode modified buffer (135 mM NaCl, 12 mM NaHCO3, 1 mM Sodium Citrate, 2.9 mM KCl, 0.3 mM Na2HPO4, 1 mM MgCl2, 5 mM D-glucose, 10 mM Hepes, 0.35% bovine serum albumin (BSA), pH 7.4 at 37° C.) and resuspended to a density of 2.5 10^5 platelets/μl for the measurement of intracellular Ca^2+ or platelet aggregation. For Western Blot analysis, PRP with eptifibatide 4 μg/ml (Integriline, GlaxoSmithKline) and ectonucleotidase apyrase (grade I) 0.5 U/ml was layered over a density barrier of iodixanol (Optiprep®) that allowed the erythrocytes and leucocytes to pellet during centrifugation at 350 g for 15 min. The platelets, because of their small size, sediment much more slowly. After centrifugation at 800 g for 10 min, the resulting pellet was resuspended to a density of 2·10^5 platelets/μl in Tyrode modified buffer before treatment and lysis of samples.
Light transmission during thrombin-induced platelet aggregation in human and murine PRP was recorded with a Chrono-Log Aggregometer at 37° C., under stirring condition (1200 crpm). The platelet suspension was incubated with dimethyl sulfoxide (DMSO, vehicle) or STO-609 (10 μM, Tocris) for 2 min before the addition of the thrombin (+/−0.03 U/ml). CaCl2 2 mM was added prior to the agonists.
To evaluate the potential implication of CaMKKβ in platelet aggregation, washed human platelets were pre-incubated for 2 min with 10 μM STO-609, prior to treatment with thrombin or ADP.

[6] = system: P-selectin (CD62P) on human platelet surface; assay: Flow cytometry, P-selectin (CD62P) exposure, α-granule release; details: 0.025 U/ml thrombin, 10 μM STO-609
Method: as §1, with “addition, the effect of STO-609 on α-granule release was determined” for “addition to aggregation measurements, we examined”, “measuring the exposure” for “flow cytometry STO-609 effects”, “platelet surface” for “PAC-1 binding, an antibody specific for the activated conformation”, “P-selectin (CD62P).” for “αIIbβ3. Platelets were activated by 0.025 U/ml thrombin in the absence or presence of 10 μM STO-609.”

O=C(O)c1ccc2c3c1cccc3c(=O)n1c3ccccc3nc21 [STO-609]
thrombin-induced VASP phosphorylation on Thr 278, effect of pre-incubation [1]: prevents
PAC-1 binding in response to thrombin [2]: significantly inhibited
rise in Ca2+ concentration in response to thrombin [3]: did not modify
AMPK activation, as judged by phosphorylation of downstream Ser79 acetyl-CoA carboxylase (ACC) [4]: markedly reduced
platelet aggregation caused by ADP (effect in words) ([5]; 20 μM ADP, 10 μM STO-609): not inhibited
thrombin-induced platelet aggregation, % of aggregation ([5]; 0.025 U/ml thrombin + 10 μM STO-609, 2 min pre-incubation): 11±4%
thrombin-induced platelet aggregation (effect in words) ([5]; 0.025 U/ml thrombin, 10 μM STO-609): significantly inhibited; also recorded: prevents
CD62P detection per platelet in response to thrombin (α-granule release) [6]: significantly inhibited; also recorded: prevents
